In US10717733B2, “Haloallylamine indole and azaindole derivative inhibitors of lysyl oxidases and uses thereof” (PHARMAXIS LTD., priority 2016, dated 2020):
Where a name gives a salt, the structure may show the parent alone.

How the values were obtained:
Assay type in all cases: biochemical
Human LOXL2 = Human LOXL2 (Homo sapiens (Human), UniProt Q9Y4K0); assay: LOXL2 inhibition, peroxidase-coupled Amplex Red amine oxidase assay; conditions: 30 min preincubation at 37° C., putrescine substrate
Description: (§1) Method to Determine the Ability of Compounds of the Invention to Inhibit LOX and LOXL1-4 from Different Sources
(§2) Lysyl oxidase (LOX) is an extracellular copper dependent enzyme which oxidizes peptidyl lysine and hydroxylysine residues in collagen and lysine residues in elastin to produce peptidyl alpha-aminoadipic-delta-semialdehydes. […] There are five LOX family members; these are LOX, LOXL1, LOXL2, LOXL3 and LOXL4. LOX and LOXL family members can be acquired as recombinant active proteins from commercial sources, or extracted from animal tissues like bovine aorta, tendons, pig skin; or prepared from cell cultures. The inhibitory effects of the compounds of the present invention were tested against the given LOX-LOXL preparation using a high-throughput coupled colorimetric method (Holt A. and Palcic M., A peroxidase-coupled continuous absorbance plate-reader assay for flavin monoamine oxidases, copper-containing amine oxidases and related enzymes. Nat. Protoc. 2006; 1: 2498-2505). The assay was developed using either 384 or 96 well format. Briefly, in a standard 384 well plate assay 25 μL of a dilution of any of the isoenzymes and orthologues in 1.2 M urea, 50 mM sodium borate buffer (pH 8.2) were added into each well in the presence of 1 μM mofegiline and 0.5 mM pargyline (to inhibit SSAO and MAO-B and MAO-A, respectively). Test compounds were dissolved in DMSO and tested in a Concentration Response Curve (CRC) with 11 data points, typically in the micromolar or nanomolar range after incubation with the enzyme for 30 min at 37° C. Twenty five L of a reaction mixture containing twice the KM concentration of putrescine (Sigma Aldrich, e.g. 20 mM for LOX, or 10 mM for LOXL2 and LOXL3), 120 μM Amplex Red (Sigma Aldrich) and 1.5 U/mL horseradish peroxidase (Sigma Aldrich) prepared in 1.2 M urea, 50 mM sodium borate buffer (pH 8.2) were then added to the corresponding wells. The above volumes were doubled in the case of 96 wells plate. The fluorescence (RFU) was read every 2.5 min for 30 min at a range of temperatures from 37° to 45° C., excitation 565 nm and emission 590 (Optima; BMG labtech). The slope of the kinetics for each well was calculated using MARS data analysis software (BMG labtech) and this value was used to deduce the IC50 value (Dotmatics).

Bovine LOX = Bovine LOX (Bos taurus (Bovine), UniProt P33072); assay: LOX inhibition, peroxidase-coupled Amplex Red amine oxidase assay; conditions: 30 min preincubation at 37° C., putrescine substrate
Bovine LOX, sequence (P33072 170-418): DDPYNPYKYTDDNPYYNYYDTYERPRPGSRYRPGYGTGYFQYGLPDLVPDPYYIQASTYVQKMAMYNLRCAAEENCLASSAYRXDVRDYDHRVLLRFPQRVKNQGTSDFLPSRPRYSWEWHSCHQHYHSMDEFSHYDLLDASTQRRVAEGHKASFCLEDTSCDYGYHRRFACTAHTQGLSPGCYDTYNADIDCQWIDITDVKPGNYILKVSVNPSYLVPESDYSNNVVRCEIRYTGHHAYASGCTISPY
Description: as §1
as §2, with “Test compounds were dissolved in DMSO and tested in a Concentration Response Curve (CRC) with 11 data points, typically in the micromolar or nanomolar range after incubation with the enzyme for 30 min at 37° C.” left out

[1] = target: human recombinant SSAO/VAP-1 (Homo sapiens (Human), UniProt Q16853); assay: Inhibition of human recombinant SSAO/VAP-1 amine oxidase activity; conditions: 30 min preincubation at 37° C., 600 μM benzylamine
human recombinant SSAO/VAP-1, sequence (Q16853 34-763): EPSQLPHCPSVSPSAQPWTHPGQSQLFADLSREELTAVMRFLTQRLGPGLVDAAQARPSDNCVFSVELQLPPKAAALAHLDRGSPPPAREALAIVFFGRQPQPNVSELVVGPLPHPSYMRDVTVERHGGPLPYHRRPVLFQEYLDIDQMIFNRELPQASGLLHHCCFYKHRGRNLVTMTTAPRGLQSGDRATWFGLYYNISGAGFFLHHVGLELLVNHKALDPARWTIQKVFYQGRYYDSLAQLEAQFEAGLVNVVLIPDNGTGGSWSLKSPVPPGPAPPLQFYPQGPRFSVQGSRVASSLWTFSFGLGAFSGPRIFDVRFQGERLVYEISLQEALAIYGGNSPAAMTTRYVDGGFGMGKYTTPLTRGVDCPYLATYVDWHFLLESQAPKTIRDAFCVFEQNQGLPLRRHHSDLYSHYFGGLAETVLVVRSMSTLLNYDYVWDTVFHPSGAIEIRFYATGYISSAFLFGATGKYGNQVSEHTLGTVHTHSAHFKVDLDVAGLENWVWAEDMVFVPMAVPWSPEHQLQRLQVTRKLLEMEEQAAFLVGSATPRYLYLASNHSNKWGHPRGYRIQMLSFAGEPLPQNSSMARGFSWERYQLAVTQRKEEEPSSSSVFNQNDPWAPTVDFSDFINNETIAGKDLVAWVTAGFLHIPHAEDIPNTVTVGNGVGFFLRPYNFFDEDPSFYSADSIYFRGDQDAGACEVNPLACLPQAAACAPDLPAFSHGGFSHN
Protocol: Method to Determine the Ability of Compounds of Formula I to Inhibit Human Recombinant SSAO/VAP-1
Human recombinant SSAO/VAP-1 amine oxidase activity was determined using the coupled colorimetric method as described for monoamine oxidase, copper-containing amine oxidases and related enzymes (Holt A. and Palcic M., A peroxidase-coupled continuous absorbance plate-reader assay for flavin monoamine oxidases, copper-containing amine oxidases and related enzymes. Nat Protoc 2006; 1: 2498-2505). Briefly, a cloned cDNA template corresponding to residues 34-763 of human SSAO/VAP-1, and incorporating a mouse Ig kappa (κ) signal sequence, N-terminal flag epitope tag and tobacco etch virus (TEV) cleavage site, was assembled in a mammalian expression vector (pLO-CMV) by Geneart AG. This vector containing human SSAO/VAP-1 residues was transfected into CHO-K1 glycosylation mutant cell line, Lec 8. A clone stably expressing human SSAO/VAP-1 was isolated and cultured in large scale. Active human SSAO/VAP-1 was purified and recovered using immunoaffinity chromatography. This was used as the source for SSAO/VAP-1 activity. A high-throughput colorimetric assay was developed using either 96 or 384 well format. Briefly, in a standard 96 well plate assay 50 μL of purified human SSAO/VAP-1 (0.25 μg/mL) in 0.1 M sodium phosphate buffer (pH 7.4) was added into each well. Test compounds were dissolved in DMSO and tested in a Concentration Response Curve (CRC) with 4-11 data points, typically in the micromolar or nanomolar range after incubation with human SSAO/VAP-1 for 30 min at 37° C. After 30 min incubation, 50 μL of the reaction mixture containing 600 μM benzylamine (Sigma Aldrich), 120 μM Amplex Red (Sigma Aldrich) and 1.5 U/mL horseradish peroxidase (Sigma Aldrich) prepared in 0.1 M sodium phosphate buffer (pH 7.4) were added to the corresponding well. The fluorescence unit (RFU) was read every 2.5 min for 30 min at 37° C. excitation 565 nm and emission 590 (Optima; BMG labtech). The slope of the kinetics for each well was calculated using MARS data analysis software (BMG labtech) and this value was used to deduce the IC50 value (Dotmatics).

Recombinant human MAO-B = Recombinant human MAO-B (Homo sapiens (Human), UniProt P27338); assay: Inhibition of human recombinant MAO-B; conditions: benzylamine 100 μM
Recombinant human MAO-B, sequence (P27338 whole entry): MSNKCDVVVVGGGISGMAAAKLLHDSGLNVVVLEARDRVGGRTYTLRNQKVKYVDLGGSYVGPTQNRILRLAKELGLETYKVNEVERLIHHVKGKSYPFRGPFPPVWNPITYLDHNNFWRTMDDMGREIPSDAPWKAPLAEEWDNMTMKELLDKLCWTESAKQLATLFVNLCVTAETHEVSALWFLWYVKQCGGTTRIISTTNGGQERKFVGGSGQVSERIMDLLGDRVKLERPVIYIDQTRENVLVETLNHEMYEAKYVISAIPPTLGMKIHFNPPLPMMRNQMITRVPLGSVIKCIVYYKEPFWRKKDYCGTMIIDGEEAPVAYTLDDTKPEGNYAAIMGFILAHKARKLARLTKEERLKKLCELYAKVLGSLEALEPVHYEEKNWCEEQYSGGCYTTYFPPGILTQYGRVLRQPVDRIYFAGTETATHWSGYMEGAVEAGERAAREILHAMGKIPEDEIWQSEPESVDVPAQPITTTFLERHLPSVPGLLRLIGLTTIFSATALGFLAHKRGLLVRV
Protocol: Method to Determine the Ability of Compounds of Formula I to Inhibit Human Recombinant MAO-B
The specificity of the compounds of this invention was tested by determining their ability to inhibit MAO-B activities in vitro. Recombinant human MAO-B (0.06 mg/mL; Sigma Aldrich) was used as source of MAO-B enzyme activities. The assay was performed in a similar way as for human SSAO/VAP-1 (Example 66) except, the substrate benzylamine was used at 100 μM.

Human LOXL2, sequence (Q9Y4K0 26-774): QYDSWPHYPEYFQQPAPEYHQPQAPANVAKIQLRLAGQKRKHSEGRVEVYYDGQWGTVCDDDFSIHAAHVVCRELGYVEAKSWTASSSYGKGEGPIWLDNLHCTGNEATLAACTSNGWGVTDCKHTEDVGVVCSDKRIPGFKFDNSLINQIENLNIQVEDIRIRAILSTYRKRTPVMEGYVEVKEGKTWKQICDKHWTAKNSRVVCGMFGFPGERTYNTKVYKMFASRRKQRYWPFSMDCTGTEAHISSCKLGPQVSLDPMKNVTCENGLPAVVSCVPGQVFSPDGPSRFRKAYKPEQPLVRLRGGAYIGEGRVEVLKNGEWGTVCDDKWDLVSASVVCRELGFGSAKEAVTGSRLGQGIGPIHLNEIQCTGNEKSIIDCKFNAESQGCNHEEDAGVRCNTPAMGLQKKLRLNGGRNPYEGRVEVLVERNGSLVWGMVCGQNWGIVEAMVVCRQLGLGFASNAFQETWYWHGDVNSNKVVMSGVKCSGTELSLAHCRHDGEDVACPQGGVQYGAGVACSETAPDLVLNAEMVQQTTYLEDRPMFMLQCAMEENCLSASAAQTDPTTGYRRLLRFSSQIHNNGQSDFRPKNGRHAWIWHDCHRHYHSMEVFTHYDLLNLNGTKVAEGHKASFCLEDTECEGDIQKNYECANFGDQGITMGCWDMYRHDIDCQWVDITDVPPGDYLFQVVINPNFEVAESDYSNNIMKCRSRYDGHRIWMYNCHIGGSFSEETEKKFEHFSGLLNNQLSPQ

Structure (SMILES) | IC50 (Human LOXL2) [µM] | IC50 (Bovine LOX) [µM] | IC50 [1] [µM] | IC50 (Recombinant human MAO-B) [µM]
CCOC(=O)c1ccc2c(c1)c(-c1cccc(Cl)c1)c(C)n2C/C(F)=C/CN [Compound 27, ethyl (Z)-1-(4-amino-2-fluorobut-2-en-1-yl)-3-(3-chlorophenyl)-2-methyl-1H-indole-5-carboxylate] | < 0.3 | > 0.3 | > 3 | > 3
Cc1c(-c2cccc(Cl)c2)c2cc(C(=O)O)ccc2n1C/C(F)=C/CN [Compound 28, (Z)-1-(4-amino-2-fluorobut-2-en-1-yl)-3-(3-chlorophenyl)-2-methyl-1H-indole-5-carboxylic acid] | < 0.3 | > 0.3 | > 3 | > 3
Cc1c(-c2cccc(S(=O)(=O)N(C)C)c2)c2cc(-c3nn[nH]n3)ccc2n1C/C(F)=C/CN [Compound 29, (Z)-3-(1-(4-amino-2-fluorobut-2-en-l-yl)-2-methyl-5-(2H-tetrazol-5-yl)-1H-indol-3-yl)-N,N-dimethylbenzenesulfonamide, Hydrochloride] | < 0.3 | > 0.3 | > 3 | > 3
CCOC(=O)c1ccc2c(c1)c(-c1cccc(C(C)(C)C)c1)c(C)n2C/C(F)=C/CN [Compound 30, ethyl (Z)-1-(4-amino-2-fluorobut-2-en-1-yl)-3-(3-(tert-butyl)phenyl)-2-methyl-1H-indole-5-carboxylate] | < 0.3 | > 0.3 | > 3 | > 3
Cc1c(-c2cccc(C(C)(C)C)c2)c2cc(C(=O)O)ccc2n1C/C(F)=C/CN [Compound 31, (Z)-1-(4-amino-2-fluorobut-2-en-l-yl)-3-(3-(tert-butyl)phenyl)-2-methyl-1H-indole-5-carboxylic acid, Hydrochloride] | < 0.3 | > 0.3 | > 3 | > 3
Cc1c(-c2cccc(S(=O)(=O)N(C)C)c2)c2ccncc2n1C/C(F)=C/CN [Compound 32, (Z)-3-(1-(4-amino-2-fluorobut-2-en-1-yl)-2-methyl-1H-pyrrolo[2,3-c]pyridin-3-yl)-N,N-dimethylbenzenesulfonamide Dihydrochloride] | < 0.3 | > 0.3 | > 3 | > 3
CCOC(=O)c1cccc(-c2c(C)n(C/C(F)=C/CN)c3ccc(S(=O)(=O)N(C)C)cc23)c1 [Compound 33, ethyl (Z)-3-(1-(4-amino-2-fluorobut-2-en-1-yl)-5-(N,N-dimethylsulfamoyl)-2-methyl-1H-indol-3-yl)benzoate] | < 0.3 | > 0.3 | > 3 | > 3
Cc1c(-c2cccc(C(=O)O)c2)c2cc(S(=O)(=O)N(C)C)ccc2n1C/C(F)=C/CN [Compound 34, (Z)-3-(1-(4-amino-2-fluorobut-2-en-1-yl)-5-(N,N-dimethylsulfamoyl)-2-methyl-1H-indol-3-yl)benzoic acid] | < 0.3 | > 0.3 | > 3 | > 3
Cc1c(-c2cccc(S(=O)(=O)N(C)C)c2)c2cc(C(=O)NC(C)C)ccc2n1C/C(F)=C/CN [Compound 35, (Z)-1-(4-amino-2-fluorobut-2-en-1-yl)-3-(3-(N,N-dimethylsulfamoyl)phenyl)-N-isopropyl-2-methyl-1H-indole-5-carboxamide] | < 0.3 | > 0.3 | > 3 | > 3
Cc1c(-c2cccc(S(=O)(=O)N(C)C)c2)c2cc(C(=O)N(C)C(C)C)ccc2n1C/C(F)=C/CN [Compound 36, (Z)-1-(4-amino-2-fluorobut-2-en-1-yl)-3-(3-(N,N-dimethylsulfamoyl)phenyl)-N-isopropyl-N,2-dimethyl-1H-indole-5-carboxamide] | < 0.3 | > 0.3 | > 3 | > 3
